# Assay results: patent US8586550B2, “Thiazole derivatives as SGLT2 inhibitors and pharmaceutical composition comprising same” (Green Cross Corporation, priority 2010, dated 2013)
# Biological target: T1, Human SGLT2 (hSGLT2) (Homo sapiens, UniProt P31639)
# T1 construct: expressed in transfected cells
# T1 sequence (P31639 1-672): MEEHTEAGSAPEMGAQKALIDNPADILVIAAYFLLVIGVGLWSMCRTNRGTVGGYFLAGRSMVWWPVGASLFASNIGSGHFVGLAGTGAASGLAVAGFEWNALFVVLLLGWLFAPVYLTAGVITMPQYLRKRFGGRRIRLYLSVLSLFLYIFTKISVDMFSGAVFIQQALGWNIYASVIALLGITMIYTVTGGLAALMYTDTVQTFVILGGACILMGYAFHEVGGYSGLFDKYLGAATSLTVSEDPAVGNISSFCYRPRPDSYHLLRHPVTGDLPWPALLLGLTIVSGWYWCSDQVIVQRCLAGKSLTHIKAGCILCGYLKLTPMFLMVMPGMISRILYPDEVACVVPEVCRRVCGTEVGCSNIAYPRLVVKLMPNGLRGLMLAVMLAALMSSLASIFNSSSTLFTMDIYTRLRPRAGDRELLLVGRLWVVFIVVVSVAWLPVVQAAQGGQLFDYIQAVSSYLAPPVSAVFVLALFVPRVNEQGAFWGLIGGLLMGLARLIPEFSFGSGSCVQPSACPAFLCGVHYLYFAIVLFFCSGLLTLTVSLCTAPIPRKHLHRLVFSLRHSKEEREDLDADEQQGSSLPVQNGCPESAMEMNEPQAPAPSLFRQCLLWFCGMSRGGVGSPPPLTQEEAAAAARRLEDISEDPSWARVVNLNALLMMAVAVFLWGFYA
# Assay: Sodium-dependent glucose transport (14C-AMG uptake) assay in CHO cells stably expressing hSGLT2
# Type: cell-based
# Details: CHO cells expressing hSGLT2, 14C-AMG uptake, 37° C. for 2 h; single determinations; read-out: hSGLT2 Inhibitory Activity IC50
# Source text: Cloning and Cell Line Construction for Human SGLT2
# Human SGLT2 (hSGLT2) gene was amplified by PCR from cDNA-Human Adult Normal Tissue Kidney (Invitrogen). The hSGLT2 sequence was cloned into pcDNA3.1(+) for mammalian expression and were stably transfected into chinese hamster ovary (CHO) cells. SGLT2-expressing clones were selected based on resistance to G418 antibiotic (Geneticin) and activity in the ^14C-α-methyl-D-glucopyranoside (^14C-AMG) uptake assay.
# Inhibitory Effects on Human SGLT2 Activities
# For sodium-dependent glucose transport assay, cells expressing hSGLT2 were seeded into a 96-well culture plate at a density of 5×10^4 cells/well in RPMI medium 1640 containing 10% fetal bovine serum. The cells were used 1 day after plating. They were incubated in pretreatment buffer (10 mM HEPES, 5 mM Tris, 140 mM choline chloride, 2 mM KCl, 1 mM CaCl2, and 1 mM MgCl2, pH 7.4) at 37° C. for 10 min. They were then incubated in uptake buffer (10 mM HEPES, 5 mM Tris, 140 mM NaCl, 2 mM KCl, 1 mM CaCl2, 1 mM MgCl2, and 1 mM ^14C-nonlabeled AMG, pH 7.4) containing ^14C-labeled (8 μM) and inhibitor or dimethylsulfoxide (DMSO) vehicle at 37° C. for 2 h. Cells were washed twice with washing buffer (pretreatment buffer containing 10 mM AMG at room temperature) and then the radioactivity was measured using a liquid scintillation counter. IC50 was determined by nonlinear regression analysis using GraphPad PRISM [Katsuno, K. et al. J. Pharmacol. Exp. Ther. 2007, 320, 323-330; Han, S. et al. Deabetes, 2008, 57, 1723-1729].
row,IC50,SMILES
1,32.8 nM,"CCCCCCCc1cnc(Cc2cc([C@@H]3O[C@H](CO)[C@@H](O)[C@H](O)[C@H]3O)c3ccccc3c2O)s1 [Example 127, (2S,3R,4R,5S,6R)-2-(3-((5-Heptylthiazol-2-yl)methyl)-4-hydroxynaphthalen-1-yl)-6-(hydroxymethyl)-tetrahydro-2H-pyran-3,4,5-triol]"
2,0.797 nM,"OC[C@H]1O[C@@H](c2cc(Cc3ncc(-c4ccco4)s3)c(Cl)cc2O)[C@H](O)[C@@H](O)[C@@H]1O [Example 112, (2S,3R,4R,5S,6R)-2-(4-Chloro-5-((5-(furan-2-yl)thiazol-2-yl)methyl)-2-hydroxyphenyl)-6-(hydroxymethyl)-tetrahydro-2H-pyran-3,4,5-triol]"
3,1.42 nM,"OC[C@H]1O[C@@H](c2ccc(Cl)c(Cc3cnc(-c4ccco4)s3)c2)[C@H](O)[C@@H](O)[C@@H]1O [Example 184, (2S,3R,4R,5S,6R)-2-(4-Chloro-3-((2-(furan-2-yl)thiazol-5-yl)methyl)phenyl)-6-(hydroxymethyl)tetrahydro-2H-pyran-3,4,5-triol]"
4,7.01 nM,"C[C@H]1O[C@@H](c2ccc(Cl)c(Cc3ncc(-c4ccco4)s3)c2)[C@H](O)[C@@H](O)[C@@H]1O [Example 146, (2S,3R,4S,5S,6R)-2-(4-Chloro-3-((5-(furan-2-yl)thiazol-2-yl)methyl)phenyl)-6-methyl-tetrahydro-2H-pyran-3,4,5-triol]"
5,67.3 nM,"CCCc1cnc(Cc2cc([C@@H]3O[C@H](CO)[C@@H](O)[C@H](O)[C@H]3O)c3ccccc3c2O)s1 [Example 126, (2S,3R,4R,5S,6R)-2-(4-Hydroxy-3-((5-propylthiazol-2-yl)methyl)naphthalen-1-yl)-6-(hydroxymethyl)-tetrahydro-2H-pyran-3,4,5-triol]"
6,22.6 nM,"OC[C@H]1O[C@@H](c2cccc(Cc3ncc(-c4ccco4)s3)c2)[C@H](O)[C@@H](O)[C@@H]1O [Example 111, (2S,3R,4R,5S,6R)-2-(3-((5-(Furan-2-yl)thiazol-2-yl)methyl)phenyl)-6-(hydroxymethyl)-tetrahydro-2H-pyran-3,4,5-triol]"
7,7.3 nM,"CCCCCCCc1cnc(Cc2cc([C@@H]3O[C@H](CO)[C@@H](O)[C@H](O)[C@H]3O)c3ccccc3c2OC)s1 [Example 100, (2S,3R,4R,5S,6R)-2-(3-((5-Heptylthiazol-2-yl)methyl)-4-methoxynaphthalen-1-yl)-6-(hydroxymethyl)-tetrahydro-2H-pyran-3,4,5-triol]"
8,123 nM,"CCCCc1cnc(Cc2cn([C@@H]3O[C@H](CO)[C@@H](O)[C@H](O)[C@H]3O)c3ccccc23)s1 [Example 135, (2R,3R,4S,5S,6R)-2-(3((5-Butylthiazol-2-yl)methyl)-1H-indol-1-yl)-6-(hydroxymethyl)tetrahydro-2H-pyran-3,4,5-triol]"
9,24 nM,"CCOC(=O)OC[C@H]1O[C@@H](c2ccc(Cl)c(Cc3ncc(-c4ccco4)s3)c2)[C@H](O)[C@@H](O)[C@@H]1O [Example 160, ((2R,3S,4R,5R,6S)-6-(4-Chloro-3-((5-(furan-2-yl)thiazol-2-yl)methyl)phenyl)-3,4,5-trihydroxytetrahydro-2H-pyran-2-yl)methyl ethyl carbonate]"
10,23.5 nM,"COC[C@H]1O[C@@H](c2ccc(Cl)c(Cc3ncc(-c4ccco4)s3)c2)[C@H](O)[C@@H](O)[C@@H]1O [Example 139, (2S,3R,4R,5S,6R)-2-(4-Chloro-3-((5-(furan-2-yl)thiazol-2-yl)methyl)phenyl)-6-(methoxymethyl)-tetrahydro-2H-pyran-3,4,5-triol]"

# Second part, the molecule before the results:
row,SMILES,IC50
1,"Cc1cnc(Cc2cc([C@@H]3O[C@H](CO)[C@@H](O)[C@H](O)[C@H]3O)c(Cl)cc2Cl)s1 [Example 63, (2S,3R,4R,5S,6R)-2-(2,4-Dichloro-5-((5-methylthiazol-2-yl)methyl)phenyl)-6-(hydroxymethyl)tetrahydro-2H-pyran-3,4,5-triol]",49.1 nM
2,"C/C=C(\C)c1cnc(Cc2cc([C@@H]3O[C@H](CO)[C@@H](O)[C@H](O)[C@H]3O)ccc2Cl)s1 [Example 18, (2S,3R,4R,5S,6R,E)-2-(3-((5-(but-2-en-2-yl)thiazol-2-yl)methyl)-4-chlorophenyl)-6-(hydroxymethyl)-tetrahydro-2H-pyran-3,4,5-triol]",4.69 nM
3,"C=CCOc1cc(Cl)c(Cc2ncc(-c3ccc(F)cc3)s2)cc1[C@@H]1O[C@H](CO)[C@@H](O)[C@H](O)[C@H]1O [Example 88, (2S,3R,4R,5S,6R)-2-(2-(Allyloxy)-4-chloro-5-((5-(4-fluorophenyl)thiazol-2-yl)methyl)phenyl)-6-(hydroxymethyl)tetrahydro-2H-pyran-3,4,5-triol]",4.22 nM
4,"Cc1ccc([C@@H]2O[C@H](CO)[C@@H](O)[C@H](O)[C@H]2O)cc1Cc1ncc(-c2ccc(F)cc2)s1 [Example 37, (2S,3R,4R,5S,6R)-2-(3-((5-(4-Fluorophenyl)thiazol-2-yl)methyl)-4-methylphenyl)-6-(hydroxymethyl)tetrahydro-2H-pyran-3,4,5-triol]",9.8 nM
5,"OC[C@H]1O[C@@H](c2cc(Cc3ncc(-c4ccccc4)s3)c(Cl)cc2F)[C@H](O)[C@@H](O)[C@@H]1O [Example 57, (2S,3R,4R,5S,6R)-2-(4-Chloro-2-fluoro-5-((5-phenylthiazol-2-yl)methyl)phenyl)-6-(hydroxymethyl)tetrahydro-2H-pyran-3,4,5-triol]",4.57 nM
6,"CC(C)c1cnc(Cc2cc([C@@H]3O[C@H](CO)[C@@H](O)[C@H](O)[C@H]3O)ccc2Cl)s1 [Example 16, (2S,3R,4R,5S,6R)-2-(4-Chloro-3-((5-isopropylthiazol-2-yl)methyl)phenyl)-6-(hydroxymethyl)-tetrahydro-2H-pyran-3,4,5-triol]",51.4 nM
7,"CCCCCOc1cnc(Cc2cc([C@@H]3O[C@H](CO)[C@@H](O)[C@H](O)[C@H]3O)ccc2Cl)s1 [Example 23, (2S,3R,4R,5S,6R)-2-(4-Chloro-3-((5-(pentyloxy)thiazol-2-yl)methyl)phenyl)-6-(hydroxymethyl)-tetrahydro-2H-pyran-3,4,5-triol]",8.21 nM
8,"Cc1ccc([C@@H]2O[C@H](CO)[C@@H](O)[C@H](O)[C@H]2O)cc1Cc1ncc(Cc2ccccc2)s1 [Example 39, (2S,3R,4R,5S,6R)-2-(3-((5-Benzylthiazol-2-yl)methyl)-4-methylphenyl)-6-(hydroxymethyl)tetrahydro-2H-pyran-3,4,5-triol]",176 nM
9,"OC[C@H]1O[C@@H](c2cc(Cc3ncc(-c4ccsc4)s3)c(Cl)cc2Cl)[C@H](O)[C@@H](O)[C@@H]1O [Example 62, (2S,3R,4R,5S,6R)-2-(2,4-Dichloro-5-((5-(thiophen-3-yl)thiazol-2-yl)methyl)phenyl)-6-(hydroxymethyl)tetrahydro-2H-pyran-3,4,5-triol]",2.31 nM
10,"CCOc1cc(Cl)c(Cc2ncc(-c3cccs3)s2)cc1[C@@H]1O[C@H](CO)[C@@H](O)[C@H](O)[C@H]1O [Example 79, (2S,3R,4R,5S,6R)-2-(4-Chloro-2-ethoxy-5-((5-(thiophen-2-yl)thiazol-2-yl)methyl)phenyl)-6-(hydroxymethyl)tetralrydro-2H-pyran-3,4,5-triol]",4.29 nM
11,"COc1c(Cc2ncc(-c3ccco3)s2)cc([C@@H]2O[C@H](CO)[C@@H](O)[C@H](O)[C@H]2O)c2ccccc12 [Example 95, (2S,3R,4R,5S,6R)-2-(3-((5-(Furan-2-yl)thiazol-2-yl)methyl)-4-methoxynaphthalen-1-yl)-6-(hydroxymethyl)-tetrahydro-2H-pyran-3,4,5-triol]",2.94 nM
12,"CCc1cnc(Cc2cc([C@@H]3O[C@H](CO)[C@@H](O)[C@H](O)[C@H]3O)c(Cl)cc2Cl)s1 [Example 64, (2S,3R,4R,5S,6R)-2-(2,4-Dichloro-5-((5-ethylthiazol-2-yl)methyl)phenyl)-6-(hydroxymethyl)tetrahydro-2H-pyran-3,4,5-triol]",26.3 nM
